Measurements published in patent US7928098B2, “Therapeutic and/or preventive agents for a sleep disorder” (Kyowa Hakko Kirin Co., Ltd., priority 2005, dated 2011).

melting point | SMILES
109 to 112 °C | CN(C)Cc1ccc(C(=O)Nc2nc(-c3ccco3)c(C(=O)C3CCOCC3)s2)cc1 [Compound 384, 4-(Dimethylaminomethyl)-N-[4-(2-furyl)-5-(tetrahydropyran-4-ylcarbonyl)thiazol-2-yl]benzamide]
221 to 222 °C | O=C(Nc1nc(-c2ccco2)c(C(=O)C2CCOCC2)s1)c1ccccc1 [Compound 362, N-[4-(2-Furyl)-5-(tetrahydropyran-4-ylcarbonyl)thiazol-2-yl]benzamide]
182 to 187 °C | O=C(Nc1nc(-c2ccco2)c(C(=O)C2CCCC2)s1)C1CC1 [Compound 339, N-[5-(Cyclopentylcarbonyl)-4-(2-furyl)thiazol-2-yl]cyclopropanecarboxamide]
140 to 142 °C | O=C(Cc1ccccc1)Nc1nc(-c2ccco2)c(C(=O)C2CCOCC2)s1 [Compound 431, N-[4-(2-Furyl)-5-(tetrahydropyran-4-ylcarbonyl)thiazol-2-yl]-2-phenylacetamide]
200 to 205 °C | O=C(Nc1nc(-c2ccco2)c(C(=O)C2CCOCC2)s1)c1cnccn1 [Compound 414, N-[4-(2-Furyl)-5-(tetrahydropyran-4-ylcarbonyl)thiazol-2-yl]pyrazine-2-carboxamide]
152 to 153 °C | CCOC(=O)Nc1nc(-c2ccco2)c(C(=O)C2CCOCC2)s1 [Compound 486, Ethyl N-[4-(2-furyl)-5-(tetrahydropyran-4-ylcarbonyl)thiazol-2-yl]carbamate]
225 to 240 °C (dec.) | CCC(=O)c1sc(NC(=O)c2ccncc2)nc1-c1ccco1 [Compound 288, N-[4-(2-Furyl)-5-propionylthiazol-2-yl]pyridine-4-carboxamide]
219 to 222 °C | COc1ccc(C(=O)Nc2nc(-c3ccco3)c(C(=O)C3CCOCC3)s2)c(OC)c1 [Compound 389, N-[4-(2-Furyl)-5-(tetrahydropyran-4-ylcarbonyl)thiazol-2-yl]-2,4-dimethoxybenzamide]
170 to 174 °C | CCn1cc(C(=O)Nc2nc(-c3ccco3)c(C(=O)C3CCOCC3)s2)cn1 [Compound 425, 1-Ethyl-N-[4-(2-furyl)-5-(tetrahydropyran-4-ylcarbonyl)-thiazol-2-yl]pyrazole-4-carboxamide]

Continued, compound first:

SMILES | melting point
O=C(CCl)Nc1nc(-c2ccco2)c(C(=O)c2ccccn2)s1 [Compound 170, 2-Chloro-N-[4-(2-furyl)-5-(pyridin-2-ylcarbonyl)thiazol-2-yl]acetamide] | 184 to 185 °C
COc1cc(C(=O)c2sc(NC(=O)c3ccncc3)nc2-c2ccco2)ccn1 [Compound 243, N-[4-(2-Furyl)-5-(2-methoxypyridin-4-ylcarbonyl)thiazol-2-yl]pyridine-4-carboxamide] | 237 to 239 °C
CC(C)N1CCN(CC(=O)Nc2nc(-c3ccco3)c(C(=O)c3ccccn3)s2)CC1 [Compound 182, N-[4-(2-Furyl)-5-(pyridin-2-ylcarbonyl)thiazol-2-yl]-2-(4-isopropylpiperazine-1-yl)acetamide] | 154 to 155 °C
O=C(CN1CCN(c2ncccn2)CC1)Nc1nc(-c2ccco2)c(C(=O)c2ccccn2)s1 [Compound 186, N-[4-(2-Furyl)-5-(pyridin-2-ylcarbonyl)thiazol-2-yl]-2-[4-(2-pyrimidinyl)piperazin-1-yl]acetamide] | 199 to 200 °C
Cc1cnc(C(=O)Nc2nc(-c3ccco3)c(C(=O)c3ccccn3)s2)cn1 [Compound 138, N-[4-(2-Furyl)-5-(pyridin-2-ylcarbonyl)thiazol-2-yl]-5-methylpyrazine-2-carboxamide] | 208 to 209 °C
O=C(Nc1nc(-c2ccco2)c(C(=O)c2ccccn2)s1)c1ccnc(Cl)c1 [Compound 122, 2-Chloro-N-[4-(2-furyl)-5-(pyridin-2-ylcarbonyl)thiazol-2-yl]pyridine-4-carboxamide] | 219 to 225 °C
